Measurements from PubChem BioAssay (NCI).
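Tested at 5 concentrations; 48 h exposure; 96-well plates; endpoints linearly interpolated, else capped at highest concentration. Here, GI50 denotes the concentration required for 50% inhibition of growth. The concentration for full growth arrest is given as TGI.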

Tests used:
Experiment in all cases: inhibition of tumour cell growth, NCI panel, 48 h
CCRF-CEM leukemia = test system: CCRF-CEM leukemia
MDA-MB-435 = test system: MDA-MB-435
SR leukemia = test system: SR leukemia
SF-295 CNS = test system: SF-295 CNS
MDA-MB-231 breast = test system: MDA-MB-231 breast
HL-60(TB) leukemia = test system: HL-60(TB) leukemia
A549 NSCLC = test system: A549 NSCLC
A498 renal = test system: A498 renal
SN12C renal = test system: SN12C renal
786-0 renal = test system: 786-0 renal
NCI-H460 lung = test system: NCI-H460 lung
EKVX NSCLC = test system: EKVX NSCLC
UACC-257 melanoma = test system: UACC-257 melanoma
BT-549 breast = test system: BT-549 breast
SK-MEL-5 melanoma = test system: SK-MEL-5 melanoma
NCI-H522 lung = test system: NCI-H522 lung
SF-539 CNS = test system: SF-539 CNS
CAKI-1 renal = test system: CAKI-1 renal
OVCAR-5 ovarian = test system: OVCAR-5 ovarian
ACHN renal = test system: ACHN renal
T-47D breast = test system: T-47D breast
UACC-62 melanoma = test system: UACC-62 melanoma
IGROV1 ovarian = test system: IGROV1 ovarian
HOP-92 NSCLC = test system: HOP-92 NSCLC
NCI/ADR-RES ovarian = test system: NCI/ADR-RES ovarian
HCC-2998 colon = test system: HCC-2998 colon
SW-620 colon = test system: SW-620 colon
HCT-116 colon = test system: HCT-116 colon
RPMI-8226 leukemia = test system: RPMI-8226 leukemia
HOP-62 NSCLC = test system: HOP-62 NSCLC
LOX IMVI melanoma = test system: LOX IMVI melanoma
UO-31 renal = test system: UO-31 renal
HS 578T breast = test system: HS 578T breast
RXF 393 renal = test system: RXF 393 renal
OVCAR-4 ovarian = test system: OVCAR-4 ovarian
KM12 colon = test system: KM12 colon
OVCAR-8 ovarian = test system: OVCAR-8 ovarian
OVCAR-3 ovarian = test system: OVCAR-3 ovarian
NCI-H226 lung = test system: NCI-H226 lung
PC-3 prostate = test system: PC-3 prostate
HT29 colon = test system: HT29 colon
TK-10 renal = test system: TK-10 renal
NCI-H23 lung = test system: NCI-H23 lung
HCT-15 colon = test system: HCT-15 colon
M14 melanoma = test system: M14 melanoma
SK-MEL-28 melanoma = test system: SK-MEL-28 melanoma
SK-OV-3 ovarian = test system: SK-OV-3 ovarian
U251 CNS = test system: U251 CNS
MALME-3M melanoma = test system: MALME-3M melanoma
K-562 leukemia = test system: K-562 leukemia
SF-268 CNS = test system: SF-268 CNS
SNB-19 CNS = test system: SNB-19 CNS
MCF7 breast = test system: MCF7 breast
SNB-75 CNS = test system: SNB-75 CNS
SK-MEL-2 melanoma = test system: SK-MEL-2 melanoma
MDA-MB-468 breast = test system: MDA-MB-468 breast
MOLT-4 leukemia = test system: MOLT-4 leukemia
COLO 205 colon = test system: COLO 205 colon
DU-145 prostate = test system: DU-145 prostate

SMILES: CCCCNC(=S)Nc1ccc(OCc2nc3ccc(Cl)cc3[nH]2)cc1
- GI50 (CCRF-CEM leukemia): 3.16 µM
- TGI (CCRF-CEM leukemia): 12.4 µM
- GI50 (MDA-MB-435): 10.1 µM
- TGI (MDA-MB-435): 22.2 µM
- GI50 (SR leukemia): 2.91 µM
- TGI (SR leukemia): 17.4 µM
- GI50 (SF-295 CNS): 6.92 µM
- TGI (SF-295 CNS): 20.6 µM
- GI50 (MDA-MB-231 breast): 9.9 µM
- TGI (MDA-MB-231 breast): 22.1 µM
- GI50 (HL-60(TB) leukemia): 1.8 µM
- TGI (HL-60(TB) leukemia): 9.66 µM
- GI50 (A549 NSCLC): 12.2 µM
- TGI (A549 NSCLC): 26.7 µM
- GI50 (A498 renal): 12.1 µM
- TGI (A498 renal): 24.9 µM
- GI50 (SN12C renal): 10.5 µM
- TGI (SN12C renal): 22.9 µM
- GI50 (786-0 renal): 2.67 µM
- TGI (786-0 renal): 10.1 µM
- GI50 (NCI-H460 lung): 10.2 µM
- TGI (NCI-H460 lung): 27.8 µM
- GI50 (EKVX NSCLC): 7.13 µM
- TGI (EKVX NSCLC): 20.2 µM
- GI50 (UACC-257 melanoma): 11.5 µM
- TGI (UACC-257 melanoma): 24.1 µM
- GI50 (BT-549 breast): 9.98 µM
- TGI (BT-549 breast): 22.4 µM
- GI50 (SK-MEL-5 melanoma): 11.9 µM
- TGI (SK-MEL-5 melanoma): 24.5 µM
- GI50 (NCI-H522 lung): 3.07 µM
- TGI (NCI-H522 lung): 14.8 µM
- GI50 (SF-539 CNS): 11.5 µM
- TGI (SF-539 CNS): 23.6 µM
- GI50 (CAKI-1 renal): 4.42 µM
- TGI (CAKI-1 renal): 18.3 µM
- GI50 (OVCAR-5 ovarian): 13 µM
- TGI (OVCAR-5 ovarian): 25.6 µM
- GI50 (ACHN renal): 7.74 µM
- TGI (ACHN renal): 20.4 µM
- GI50 (T-47D breast): 6.06 µM
- TGI (T-47D breast): 20.5 µM
- GI50 (UACC-62 melanoma): 9.83 µM
- TGI (UACC-62 melanoma): 21.7 µM
- GI50 (IGROV1 ovarian): 5.3 µM
- TGI (IGROV1 ovarian): 18.5 µM
- GI50 (HOP-92 NSCLC): 2.04 µM
- TGI (HOP-92 NSCLC): 6.43 µM
- GI50 (NCI/ADR-RES ovarian): 5.73 µM
- TGI (NCI/ADR-RES ovarian): 23.4 µM
- GI50 (HCC-2998 colon): 4.14 µM
- TGI (HCC-2998 colon): 17.1 µM
- GI50 (SW-620 colon): 11.9 µM
- TGI (SW-620 colon): 30.7 µM
- GI50 (HCT-116 colon): 4.54 µM
- TGI (HCT-116 colon): 19.7 µM
- GI50 (RPMI-8226 leukemia): 3.83 µM
- TGI (RPMI-8226 leukemia): 30.3 µM
- GI50 (HOP-62 NSCLC): 13.9 µM
- TGI (HOP-62 NSCLC): 27.3 µM
- GI50 (LOX IMVI melanoma): 3.41 µM
- TGI (LOX IMVI melanoma): 16.2 µM
- GI50 (UO-31 renal): 3.46 µM
- TGI (UO-31 renal): 16.2 µM
- GI50 (HS 578T breast): 10.7 µM
- TGI (HS 578T breast): 38.6 µM
- GI50 (RXF 393 renal): 3.82 µM
- TGI (RXF 393 renal): 16.2 µM
- GI50 (OVCAR-4 ovarian): 7.67 µM
- TGI (OVCAR-4 ovarian): 21.5 µM
- GI50 (KM12 colon): 14 µM
- TGI (KM12 colon): 28.9 µM
- GI50 (OVCAR-8 ovarian): 12.4 µM
- TGI (OVCAR-8 ovarian): 25.9 µM
- GI50 (OVCAR-3 ovarian): 4.65 µM
- TGI (OVCAR-3 ovarian): 19 µM
- GI50 (NCI-H226 lung): 9.57 µM
- TGI (NCI-H226 lung): 26.4 µM
- GI50 (PC-3 prostate): 3.08 µM
- TGI (PC-3 prostate): 14.5 µM
- GI50 (HT29 colon): 10.7 µM
- TGI (HT29 colon): 24.6 µM
- GI50 (TK-10 renal): 13.1 µM
- TGI (TK-10 renal): 26.2 µM
- GI50 (NCI-H23 lung): 10.5 µM
- TGI (NCI-H23 lung): 23.5 µM
- GI50 (HCT-15 colon): 4.59 µM
- TGI (HCT-15 colon): 17.9 µM
- GI50 (M14 melanoma): 11.3 µM
- TGI (M14 melanoma): 26.8 µM
- GI50 (SK-MEL-28 melanoma): 14.3 µM
- TGI (SK-MEL-28 melanoma): 27.5 µM
- GI50 (SK-OV-3 ovarian): 14.8 µM
- TGI (SK-OV-3 ovarian): 28.6 µM
- GI50 (U251 CNS): 13.1 µM
- TGI (U251 CNS): 26.4 µM
- GI50 (MALME-3M melanoma): 11.6 µM
- TGI (MALME-3M melanoma): 23.9 µM
- GI50 (K-562 leukemia): 3.41 µM
- TGI (K-562 leukemia): > 100 µM
- GI50 (SF-268 CNS): 12.1 µM
- TGI (SF-268 CNS): 27.9 µM
- GI50 (SNB-19 CNS): 12.8 µM
- TGI (SNB-19 CNS): 25.4 µM
- GI50 (MCF7 breast): 3.55 µM
- TGI (MCF7 breast): 18.8 µM
- GI50 (SNB-75 CNS): 3.48 µM
- TGI (SNB-75 CNS): 18.1 µM
- GI50 (SK-MEL-2 melanoma): 13.1 µM
- TGI (SK-MEL-2 melanoma): 26.3 µM
- GI50 (MDA-MB-468 breast): 2.45 µM
- TGI (MDA-MB-468 breast): 12.4 µM
- GI50 (MOLT-4 leukemia): 3.23 µM
- TGI (MOLT-4 leukemia): 13.3 µM
- GI50 (COLO 205 colon): 17 µM
- TGI (COLO 205 colon): 38.1 µM
- GI50 (DU-145 prostate): 12.9 µM
- TGI (DU-145 prostate): 26 µM
